Experimental data as given in patent US20240317721A1, “PYRAZOLYL DERIVATIVES AS INHIBITORS OF THE KRAS MUTANT PROTEIN” (NOVARTIS AG, priority 2021, published 2024).

Biological target: KRasG12C (M1-K169, biotinylated on the N-terminus) (Homo sapiens (Human), UniProt P01116, G12C)
Assay: Covalent competition assay: scintillation proximity assay (SPA) quantifying covalent modification of KRASG12C
Type: binding
Conditions: competition with radiolabeled covalent probe (Compound B/Compound A), 2 hours incubation, 10 nM KRasG12C
Method in brief: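 Test compounds compete with a radiolabeled covalent probe for modification of N-terminally biotinylated KRasG12C(M1-K169):GDP, final 10 nM protein, 25 nM radio-ligand, 475 nM unlabelled ligand, 2 h with agitation in 20 mM Tris-HCl pH 7.5, 150 mM NaCl, 0.1 mM MgCl2, 0.01% Tween-20.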

Row | Compound | IC50
1 | C=CC(=O)N1CC2(CC(n3nc(N4CC[C@@H](CN5CC6(C5)CS(=O)(=O)C6)CC4(C)C)c(-c4c(Cl)c(Cl)cc5[nH]ncc45)c3C)C2)C1 (single isomer, unassigned) [Example 248a] | > 5000 nM
2 | C=CC(=O)N1CC2(CC(n3nc(N4CC[C@@H](CN5CC6(C5)CS(=O)(=O)C6)CC4(C)C)c(-c4c(Cl)c(Cl)cc5[nH]ncc45)c3C)C2)C1 (single isomer, unassigned) [Example 248b] | 9 nM
3 | C=CC(=O)N1CC2(CC(n3nc(N4CC[C@@H](CN5C[C@@H]6C[C@H]5CS6(=O)=O)CC4(C)C)c(-c4c(Cl)c(Cl)cc5[nH]ncc45)c3C)C2)C1 (single isomer, unassigned) [Example 249b] | 13 nM
4 | C=CC(=O)N1CC2(CC(n3nc(N4CC[C@@H](CN5CCn6cnnc6C5)CC4(C)C)c(-c4c(Cl)c(Cl)cc5[nH]ncc45)c3C)C2)C1 (single isomer, unassigned) [Example 250a] | 405 nM
5 | C=CC(=O)N1CC2(CC(n3nc(N4CC[C@@H](CN5CCN(CCO)C(=O)C5)CC4(C)C)c(-c4c(Cl)c(Cl)cc5[nH]ncc45)c3C)C2)C1 (single isomer, unassigned) [Example 251a] | > 5000 nM
6 | C=CC(=O)N1CC2(CC(n3nc(N4CC[C@@H](CN5CCN(CCO)C(=O)C5)CC4(C)C)c(-c4c(Cl)c(Cl)cc5[nH]ncc45)c3C)C2)C1 (single isomer, unassigned) [Example 251b] | 9 nM
7 | C=CC(=O)N1CC2(CC(n3nc(N4CC[C@@H](CN(C)CC(=O)N5CCCC5)CC4(C)C)c(-c4c(Cl)c(Cl)cc5[nH]ncc45)c3C)C2)C1 (single isomer, unassigned) [Example 252a] | > 5000 nM
8 | C=CC(=O)N1CC2(CC(n3nc(N4CC[C@@H](CN(C)CC(=O)N5CCCC5)CC4(C)C)c(-c4c(Cl)c(Cl)cc5[nH]ncc45)c3C)C2)C1 (single isomer, unassigned) [Example 252b] | 6 nM
9 | C=CC(=O)N1CC2(CC(n3nc(N4CC[C@@H](CN(CCO)CCOC)CC4(C)C)c(-c4c(Cl)c(Cl)cc5[nH]ncc45)c3C)C2)C1 (single isomer, unassigned) [Example 253b] | 8 nM
10 | C=CC(=O)N1CC2(CC(n3nc(N4CC[C@@H](CN5CC6(CCS(=O)(=O)C6)C5)CC4(C)C)c(-c4c(Cl)c(Cl)cc5[nH]ncc45)c3C)C2)C1 (single isomer, unassigned) [Example 254a] | 2600 nM
11 | C=CC(=O)N1CC2(CC(n3nc(N4CC[C@@H](CN5CC6(CCS(=O)(=O)C6)C5)CC4(C)C)c(-c4c(Cl)c(Cl)cc5[nH]ncc45)c3C)C2)C1 (single isomer, unassigned) [Example 254b] | 8 nM
12 | C=CC(=O)N1CC2(CC(n3nc(N4CC[C@@H](CN5CCN(C6COC6)CC5)CC4(C)C)c(-c4c(Cl)ccc5[nH]ncc45)c3C)C2)C1 (single isomer, unassigned) [Example 255b] | 84 nM
13 | C=CC(=O)N1CC2(CC(n3nc(N4CC[C@@H](CN5CCN(CCOC)C(=O)C5)CC4(C)C)c(-c4c(Cl)c(Cl)cc5[nH]ncc45)c3C)C2)C1 (single isomer, unassigned) [Example 256a] | 1300 nM
14 | C=CC(=O)N1CC2(CC(n3nc(N4CC[C@@H](CN5CC6CC6(O)C5)CC4(C)C)c(-c4c(Cl)c(Cl)cc5[nH]ncc45)c3C)C2)C1 (single isomer, unassigned) [Example 257b] | 12 nM
15 | C=CC(=O)N1CC2(CC(n3nc(N4CC[C@@H](CN5CC6OCCN(C)C6C5)CC4(C)C)c(-c4c(Cl)c(Cl)cc5[nH]ncc45)c3C)C2)C1 (single isomer, unassigned) [Example 259a, 1-(6-(4-(5,6-dichloro-1H-indazol-4-yl)-3-((R)-2,2-dimethyl-4-(((4aR*,7aS*)-4-methylhexahydropyrrolo[3,4-b][1,4]oxazin-6(2H)-yl)methyl)piperidin-1-yl)-5-methyl-1H-pyrazol-1-yl)-2-azaspiro[3.3]heptan-2-yl)prop-2-en-1-one] | 779 nM
16 | C=CC(=O)N1CC2(CC(n3nc(N4CC[C@@H](CN5CC6OCCN(C)C6C5)CC4(C)C)c(-c4c(Cl)c(Cl)cc5[nH]ncc45)c3C)C2)C1 (single isomer, unassigned) [Example 259b, 1-(6-(4-(5,6-dichloro-1H-indazol-4-yl)-3-((R)-2,2-dimethyl-4-(((4aR*,7aS*)-4-methylhexahydropyrrolo[3,4-b][1,4]oxazin-6(2H)-yl)methyl)piperidin-1-yl)-5-methyl-1H-pyrazol-1-yl)-2-azaspiro[3.3]heptan-2-yl)prop-2-en-1-one] | 10 nM
17 | C=CC(=O)N1CC2(CC(n3nc(N4CC[C@@H](CN5CC6OCCN(C)C6C5)CC4(C)C)c(-c4c(Cl)c(Cl)cc5[nH]ncc45)c3C)C2)C1 (single isomer, unassigned) [Example 260a, 1-(6-(4-(5,6-dichloro-1H-indazol-4-yl)-3-((R)-2,2-dimethyl-4-(((4aR*,7aS*)-4-methylhexahydropyrrolo[3,4-b][1,4]oxazin-6(2H)-yl)methyl)piperidin-1-yl)-5-methyl-1H-pyrazol-1-yl)-2-azaspiro[3.3]heptan-2-yl)prop-2-en-1-one] | > 5000 nM
18 | C=CC(=O)N1CC2(CC(n3nc(N4CC[C@@H](CN5CC6OCCN(C)C6C5)CC4(C)C)c(-c4c(Cl)c(Cl)cc5[nH]ncc45)c3C)C2)C1 (single isomer, unassigned) [Example 260b, 1-(6-(4-(5,6-dichloro-1H-indazol-4-yl)-3-((R)-2,2-dimethyl-4-(((4aR*,7aS*)-4-methylhexahydropyrrolo[3,4-b][1,4]oxazin-6(2H)-yl)methyl)piperidin-1-yl)-5-methyl-1H-pyrazol-1-yl)-2-azaspiro[3.3]heptan-2-yl)prop-2-en-1-one] | 9 nM
19 | C=CC(=O)N1CC2(CC(n3nc(N4CC[C@@H](CN5CCCC6CN(C)C(=O)C65)CC4(C)C)c(-c4c(Cl)c(Cl)cc5[nH]ncc45)c3C)C2)C1 (single isomer, unassigned) [Example 261a, (4aR*,7aR*)-1-(((R)-1-(1-(2-acryloyl-2-azaspiro[3.3]heptan-6-yl)-4-(5,6-dichloro-1H-indazol-4-yl)-5-methyl-1H-pyrazol-3-yl)-2,2-dimethylpiperidin-4-yl)methyl)-6-methyloctahydro-7H-pyrrolo[3,4-b]pyridin-7-one] | > 5000 nM
20 | C=CC(=O)N1CC2(CC(n3nc(N4CC[C@@H](CN5CCCC6CN(C)C(=O)C65)CC4(C)C)c(-c4c(Cl)c(Cl)cc5[nH]ncc45)c3C)C2)C1 (single isomer, unassigned) [Example 261b, (4aR*,7aR*)-1-(((R)-1-(1-(2-acryloyl-2-azaspiro[3.3]heptan-6-yl)-4-(5,6-dichloro-1H-indazol-4-yl)-5-methyl-1H-pyrazol-3-yl)-2,2-dimethylpiperidin-4-yl)methyl)-6-methyloctahydro-7H-pyrrolo[3,4-b]pyridin-7-one] | 15 nM
21 | C=CC(=O)N1CC2(CC(n3nc(N4CC[C@@H](CN5CCN6C(=O)N(C)CC6C5)CC4(C)C)c(-c4c(Cl)c(Cl)cc5[nH]ncc45)c3C)C2)C1 (single isomer, unassigned) [Example 263a] | > 5000 nM

Continued, values first:

Row | IC50 | Compound
22 | > 5000 nM | C=CC(=O)N1CC2(CC(n3nc(N4CC[C@@H](CN5C[C@@H]6C[C@H]5CS6(=O)=O)CC4(C)C)c(-c4c(Cl)c(Cl)cc5[nH]ncc45)c3C)C2)C1 (single isomer, unassigned) [Example 249a]
23 | 8 nM | C=CC(=O)N1CC2(CC(n3nc(N4CC[C@@H](CN5CCn6cnnc6C5)CC4(C)C)c(-c4c(Cl)c(Cl)cc5[nH]ncc45)c3C)C2)C1 (single isomer, unassigned) [Example 250b]
24 | 1500 nM | C=CC(=O)N1CC2(CC(n3nc(N4CC[C@@H](CN(CCO)CCOC)CC4(C)C)c(-c4c(Cl)c(Cl)cc5[nH]ncc45)c3C)C2)C1 (single isomer, unassigned) [Example 253a]
25 | 3300 nM | C=CC(=O)N1CC2(CC(n3nc(N4CC[C@@H](CN5CCN(C6COC6)CC5)CC4(C)C)c(-c4c(Cl)ccc5[nH]ncc45)c3C)C2)C1 (single isomer, unassigned) [Example 255a]
26 | 10 nM | C=CC(=O)N1CC2(CC(n3nc(N4CC[C@@H](CN5CCN(CCOC)C(=O)C5)CC4(C)C)c(-c4c(Cl)c(Cl)cc5[nH]ncc45)c3C)C2)C1 (single isomer, unassigned) [Example 256b]
27 | 22 nM | C=CC(=O)N1CC2(CC(n3nc(N4CC[C@@H](CN5CC6CC6(O)C5)CC4(C)C)c(-c4c(Cl)c(Cl)cc5[nH]ncc45)c3C)C2)C1 (single isomer, unassigned) [Example 258b]
28 | > 5000 nM | C=CC(=O)N1CC2(CC(n3nc(N4CC[C@@H](CN5CCCC6CN(C)C(=O)C65)CC4(C)C)c(-c4c(Cl)c(Cl)cc5[nH]ncc45)c3C)C2)C1 (single isomer, unassigned) [Example 262a, (4aR*,7aR*)-1-(((R)-1-(1-(2-acryloyl-2-azaspiro[3.3]heptan-6-yl)-4-(5,6-dichloro-1H-indazol-4-yl)-5-methyl-1H-pyrazol-3-yl)-2,2-dimethylpiperidin-4-yl)methyl)-6-methyloctahydro-7H-pyrrolo[3,4-b]pyridin-7-one]
29 | 7 nM | C=CC(=O)N1CC2(CC(n3nc(N4CC[C@@H](CN5CCCC6CN(C)C(=O)C65)CC4(C)C)c(-c4c(Cl)c(Cl)cc5[nH]ncc45)c3C)C2)C1 (single isomer, unassigned) [Example 262b, (4aR*,7aR*)-1-(((R)-1-(1-(2-acryloyl-2-azaspiro[3.3]heptan-6-yl)-4-(5,6-dichloro-1H-indazol-4-yl)-5-methyl-1H-pyrazol-3-yl)-2,2-dimethylpiperidin-4-yl)methyl)-6-methyloctahydro-7H-pyrrolo[3,4-b]pyridin-7-one]
30 | 8 nM | C=CC(=O)N1CC2(CC(n3nc(N4CC[C@@H](CN5CCN6C(=O)N(C)CC6C5)CC4(C)C)c(-c4c(Cl)c(Cl)cc5[nH]ncc45)c3C)C2)C1 (single isomer, unassigned) [Example 263b]
